According to publication PMC9706920, “Aryloxypropanolamine targets amyloid aggregates and reverses Alzheimer-like phenotypes in Alzheimer mouse models” (Alzheimer's Research & Therapy, 2022):

How the values were obtained:
Aβ(1–40) aggregates = biological target: T1, Aβ(1–40) aggregates (Homo sapiens, UniProt P05067); assay: ThT fluorescence Aβ(1–40) disaggregation assay; type: biochemical; details: 500 μM compound, Aβ(1–40) 25 μM pre-aggregated 3 days, co-incubated additional 3 days
T1 construct: Aβ(1–40), […]; […]; made in house; host or cells: chemical synthesis (Fmoc solid phase peptide synthesis)
Procedure: (§1) ThT fluorescence was used to assess the in vitro inhibition of Aβ(1–42) and disaggregation of Aβ(1–42), Aβ(1–40), Aβ(pE3-42), recombinant tau K18, and tau repeats R1, R2, R3, R4 by YIAD compounds. In house synthetic Aβ(1–42) was dissolved in DMSO (1 mM, 100% DMSO) and diluted to 20-fold in deionized water to make 50 μM Aβ(1–42) stocks (5% DMSO). YIAD compounds were first dissolved in DMSO (100 mM, 100% DMSO) and serially diluted with deionized water to make YIAD stocks with concentrations of 1, 10, 100, and 1000 μM (10% DMSO). For the Aβ(1–42) inhibition assay, monomeric Aβ(1–42) stocks and YIAD stocks were co-incubated at 37°C for 3 days. For Aβ(1–42) disaggregation assay, monomeric Aβ(1–42) stocks were preincubated at 37°C for three days to form Aβ(1–42) aggregates, and subsequently, YIAD stocks were added for an additional 3 days. For Aβ(1-40) disaggregation assays, Aβ(1–40) (50 μM, 5% DMSO) was preincubated at 37°C for 3 days to induce aggregation, and co-incubated with YIAD001 and YIAD002 for an additional 3 days. […] Prior to fluorescence intensity measurement, ThT solution (5 μM) was prepared by dissolving ThT, purchased from Sigma-Aldrich (MO, USA) in 50 mM glycine buffer (pH 8.5). To quantify the effect of inhibition and disaggregation, 25 μL of all samples and 75 μL of ThT solution were loaded into a half-area 96-well black plate in triplicate.

Aβ(1–42) aggregates = biological target: T2, Aβ(1–42) aggregates (Homo sapiens, UniProt P05067); assay: In vitro dot blot assay with oligomer-specific antibody A11; type: biochemical; details: Aβ(1–42) disaggregation samples, Fig. S1
T2 construct: made in house; host or cells: chemical synthesis (Fmoc solid phase peptide synthesis)
Procedure: To analyze total and oligomeric amyloid levels, protein samples (12 μg in 2 μL) and prepared in vitro disaggregation assay samples (2 μL) were directly blotted on nitrocellulose membranes. After blocking with 5% skim milk in TBS-T, the membranes were probed with anti-6E10 antibody (1:1,000, Biolegend 803003) and anti-A11 antibody (1:2000, Invitrogen AHB0052) at 4°C overnight. HRP-conjugated goat anti-mouse antibody (1:10,000, Bethyl Laboratories A90-116P) and anti-rabbit secondary antibody (1:10,000, Bethyl Laboratories A120-101P) were used for 6E10 and A11, respectively. Proteins were detected using an ECL kit (Thermo Fisher Scientific, USA). Membranes were washed with TBS-T in between steps, three times for 10 min.

[1] = biological target: T3, recombinant tau K18 aggregates (Homo sapiens, UniProt P10636); assay: ThT fluorescence tau K18 disaggregation assay; type: biochemical; details: K18 35 μM pre-aggregated 3 days, 50 and 500 μM compound for additional 3 days; concentration of the printed value not stated
T3 construct: Recombinant tau K18 fragments, […]; made in house; host or cells: Escherichia coli BL21 (DE3)
Procedure: as §1

5XFAD mice = assay: Western blot of brain lysates of 5XFAD mice; type: in vivo, mouse; details: 50 mg/kg/day, 5 weeks
Procedure: To test the in vivo efficacy of YIAD001 and YIAD002, female 5XFAD mice (n = 25) and female wildtype mice (n = 7) were assessed at the age of 4.5 months. YIAD compounds were dissolved in DMSO and diluted in drinking water to a final concentration of 50 mg/kg/day (5% DMSO, 5% Tween) for oral administration. The three compounds, YIAD001, YIAD002, and YIAD003, were freely administered via drinking water to 4.5-month-old 5XFAD mice (n = 6 for each group) for 5 weeks. As a control, 5% DMSO, 5% Tween in drinking water was provided ad libitum to littermate 5XFAD mice (n = 7) and wildtype mice (n = 7) for 5 weeks.
After the administration period, the mice were deeply anaesthetized with 4% avertin through intraperitoneal injection and transcardially perfused with 0.9% saline. Subsequently, the mice were sacrificed for brain excision. Each collected brain was divided through the mid-sagittal section; the hippocampal and cortical regions were dissected from one half and stored at −80°C for subsequent brain lysates, while the other half was immersed in 4% paraformaldehyde (pH 7.4) for 24 h and 30% sucrose for 48 h at 4°C and subsequently deep-froze at −80°C for immunohistochemistry.
Isolated cortical and hippocampal tissue samples were homogenized in ice-cold RIPA buffer with protease inhibitor cocktail and phosphatase inhibitor cocktail. Lysed tissues were incubated in ice for 30 min and subsequently centrifuged at 14,000 rpm at 4°C for 30 min. The supernatants of the brain lysates were collected and soluble protein concentrations were quantified with the Pierce BCA protein assay kit (Thermo Fisher Scientific, USA).
Western blot analysis was performed to assess YIAD002-induced alterations of protein biomarkers in 5XFAD mice brain lysates. Twenty micrograms of lysate samples were loaded onto 12% tris-tricine gels, separated by SDS-PAGE, and transferred to nitrocellulose membranes. Membranes were blocked by 5% skim milk or 5% BSA in TBS-T. The following primary antibodies were used for immunoblotting: anti-6E10 for APP (1:1000, Biolegend 803003), anti-AT8 (1:1000, Invitrogen MN1020), anti-Tau (1:1000, Santa Cruz SC390476), anti-ionized calcium-binding adapter molecule (Iba1) (1:1000, CST, 17198S), anti-glial fibrillar acidic protein (GFAP) (1:2000, Milipore AB5541), anti-postsynaptic density protein 95 (PSD95) (1:1000, CST 3450S), anti-synaptophysin (1:1000, Milipore MAB5258), and anti-β-Actin (1:10,000, Milipore MAB1501). Membranes were incubated with primary antibodies at 4°C overnight and probed with HRP-conjugated IgG antibodies (1:10,000) in RT for an hour. Proteins were detected using an ECL kit (Thermo Fisher Scientific, USA). Membranes were washed with TBS-T in between steps, three times for 10 min.

T1 sequence (P05067 672-711): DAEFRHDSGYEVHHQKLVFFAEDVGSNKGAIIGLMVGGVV
T3 sequence (P10636 561-689): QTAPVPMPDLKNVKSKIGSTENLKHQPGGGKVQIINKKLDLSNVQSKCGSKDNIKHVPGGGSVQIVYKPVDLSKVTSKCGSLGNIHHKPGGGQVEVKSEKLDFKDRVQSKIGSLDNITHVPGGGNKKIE
T2 sequence (P05067 672-713 limits assumed): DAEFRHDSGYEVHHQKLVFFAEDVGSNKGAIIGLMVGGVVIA

Structure (SMILES) | Decrease of Aβ(1–40) aggregates (ThT fluorescence) (Aβ(1–40) aggregates) [%] | A11-detected amyloid oligomers, in vitro disaggregation (Aβ(1–42) aggregates) | Reduction of K18 aggregates (disaggregation, ThT) [1] [%] | melting point [°C] | Cortical and hippocampal APP levels (5XFAD mice) | Cortical total tau levels (5XFAD mice; vs vehicle) | Increase of cortical PSD95 levels (5XFAD mice; vs vehicle) [%] | Increase of cortical synaptophysin levels (5XFAD mice; vs vehicle) [%] | Reduction of cortical Iba1 levels (5XFAD mice; vs vehicle) [%] | Reduction of cortical phosphorylated tau (AT8) (5XFAD mice; vs vehicle) | Reduction of GFAP expression (5XFAD mice; cortical lysates, vs vehicle) [%]
CCC(C)(C)c1ccc(OCC(O)CN2CCOCC2)c(C(C)(C)CC)c1.Cl (stereo not drawn) [YIAD001, 4-(3-(2,4-Di-tert-pentylphenoxy)-2-hydroxypropyl)morpholin-4-ium chloride] | 58.98 | dissociate Aβ(1–42) aggregates | 18.06 | 192.5 to 193.1 | did not induce significant shift | not affected | 44.59 | 38.68 | 26.08 | did not affect | 
CCC(C)(C)c1ccc(OCC(O)CN2CCCC2)c(C(C)(C)CC)c1.Cl (stereo not drawn) [YIAD002, 1-(3-(2,4-Di-tert-pentylphenoxy)-2-hydroxypropyl)pyrrolidin-1-ium chloride] | 83.35 | dissociate Aβ(1–42) aggregates | 58.96 | 179.8 to 180.7 | did not induce significant shift | not affected | 51.97 | 57.47 | 32.11 | 35.29% | 32.76
